Patent publication US7429605B2, “Phenylpyridine derivatives” (Hoffmann-La Roche Inc., priority 2005, dated 2008)

System: HEK293 cells
Experiment: Viability assay in HEK293 cells (CellTiter-Glo Luminescent Cell Viability Assay)
Assay type: cell-based
Conditions: Homo sapiens, 7 days (168 h) incubation, compound 3 μM to 0.00015 μM, ATP luminescence
Protocol: Viability Assay in HEK293 Cells
A viability assay was performed using the CellTiter-Glo® Luminescent Cell Viability Assay (see Promega Corporation's Technical Bulletin No. 288, pp. 1-11 [revised 2/04] which is hereby incorporated by reference in its entirety). This assay is a homogeneous method of determining the number of viable cells in culture based on quantitation of the ATP present, an indicator of metabolically active cells. The assay is designed for use with multiwell formats, making it ideal for automated high-throughput screening (HTS), cell proliferation and cytotoxicity assays. The homogeneous assay procedure involves adding a single reagent (containing luciferase, luciferan substrate, and buffer) directly to cells cultured in serum-supplemented medium. Cell washing, removal of medium and multiple pipetting steps are not required. The system detects as few as 15 cells/well in a 384-well format in 10 minutes after adding reagent and mixing.
The homogeneous “add-mix-measure” format results in cell lysis and generation of a luminescent signal proportional to the amount of ATP present. The amount of ATP is directly proportional to the number of cells present in culture. The above-referenced assay generates a “glow-type” luminescent signal, produced by the luciferase reaction, which has a half-life generally greater than five hours, depending on cell type and medium used. The extended half-life eliminates the need to use reagent injectors and provides flexibility for continuous or batch mode processing of multiple plates. The unique homogeneous format avoids errors that may be introduced by other ATP measurement methods that require multiple steps.
HEK293 cells (human embryonic kidney cell line transformed by Adenovirus 5 fragments, ATCC-No. CRL 1573) were cultivated in Dulbecco's Modified Eagle Medium (DMEM) with Glutamax™ (cell culture media that contains L-Alanyl-L-Glutamine [a stabilized form/source of L-Glutamine] from Invitrogen, Cat-No. 31966-021), 5% Fetal Calf Serum (FCS, Sigma Cat-No. F4135 (FBS)), 100 Units/ml penicillin/100 μg/ml streptomycin (=Pen/Strep from Invitrogen Cat. No. 15140). For the assay the cells were seeded in 384 well plates, 5000 cells per well, in the same medium. The next day the test compounds were added in various concentrations ranging from 3 μM to 0.00015 μM (10 concentrations, 1:3 diluted). After 7 days the viability assay was done according to the instructions of the manufacturer. In brief: the cell-plate was equilibrated to room temperature for approximately 30 minutes and than the reagent (containing luciferase, luciferan substrate, and buffer) was added. The contents were carefully mixed for 15 minutes to induce cell lysis. After 45 minutes the luminescent signal was measured in Victor 2, (scanning multiwell spectrophotometer, Wallac).
Medium: Dulbecco's Modified Eagle Medium (DMEM) with Glutamax™ (Invitrogen, 31966-021), 5% Fetal Calf Serum (FCS, Sigma Cat-No. F4135 (FBS)), Pen/Strep (Invitrogen Cat. No. 15140).
Incubate 24 h at 37° C., 5% CO2
2. day Induction (Substance testing):
In general the dilution steeps are 1:3 a) Add 8 μl of 10 mM stock solution of compound to 72 μl DMSO b) dilute 9×1:3 (always 30 μl to 60 μl DMSO) in this DMSO dilution row (results in 10 wells with concentrations from 1000 μM to 0.06 μM) c) dilute each concentration 1:4.8 (10 μl compound dilution to 38 μd medium) d) dilute each concentration 1:10 (10 μl compound dilution to 90 μl medium) e) add 10 μl of every concentration to 60 μl medium in the cell plate resulting in final concentration of DMSO: 0.3% in every well and resulting in final concentration of compounds from 3 μM to 0.00015 μM Incubate 168 h (7 days) at 37° C., 5% CO2
Add 30 μl CellTiter-Glo™ Reagent (containing luciferase, luciferan substrate, and buffer)/well, shake 15 minutes at room temperature incubate further 45 minutes at room temperature without shaking.
Victor 2 scanning multiwell spectrophotometer (Wallac), Luminescence mode […]

Compound	IC50
Cc1cc(OCc2ccc(-c3cccc(C(F)(F)F)c3)nc2)ccc1CCCCn1ccnn1 [Example 26, 5-[3-Methyl-4-(4-[1,2,3]triazol-1-yl-butyl)-phenoxymethyl]-2-(3-trifluoromethyl-phenyl)-pyridine]	1000 to 5000 nM
Cc1cc(OCc2ccc(-c3cccc(C(F)(F)F)c3)nc2C)ccc1CCCCn1ccnn1 [Example 13, 2-Methyl-3-[3-Methyl-4-(4-[1,2,3]triazol-1-yl-butyl)-phenoxymethyl]-6-(3-trifluoromethyl-phenyl)-pyridine]	1000 to 5000 nM
Cc1cc(OCc2ccc(-c3ccc(C(F)(F)F)cc3F)nc2C)ccc1CCCCn1ccnn1 [Example 42, 6-(2-Fluoro-4-trifluoromethyl-phenyl)-2-methyl-3-[3-methyl-4-(4-[1,2,3]triazol-1-yl-butyl)-phenoxymethyl]-pyridine]	5 to 1000 nM
Cc1cc(OCc2ccc(-c3ccc(Cl)cc3)nc2C)ccc1CCCCn1ccnn1 [Example 21, 6-(4-Chloro-phenyl)-2-methyl-3-[3-Methyl-4-(4-[1,2,3]triazol-1-yl-butyl)-phenoxymethyl]-pyridine]	5 to 1000 nM
Cc1nc(-c2ccc(C(F)(F)F)cc2)ccc1COc1ccc(C[S+]([O-])CCn2ccnn2)cc1 (stereo not drawn) [Example 9, 2-Methyl-3-[4-(2-[1,2,3]triazol-1-yl-ethanesulfinylmethyl)-phenoxymethyl]-6-(4-trifluoromethyl-phenyl)-pyridine]	1000 to 5000 nM
FC(F)(F)c1ccc(-c2cncc(COc3ccc(CCCCn4ccnn4)cc3)c2)cc1 [Example 33, 3-[4-(4-[1,2,3]Triazol-1-yl-butyl)-phenoxymethyl]-5-(4-trifluoromethyl-phenyl)-pyridine]	1000 to 5000 nM
Cc1nc(-c2ccc(C(F)(F)F)cc2)ccc1COc1ccc(COCCn2ccnn2)cc1 [Example 8, 2-Methyl-3-[4-(2-[1,2,3]triazol-1-yl-ethoxymethyl)-phenoxymethyl]-6-(4-trifluoromethyl-phenyl)-pyridine]	5 to 1000 nM
Cc1cc(OCc2ccc(-c3ccc(OC(F)(F)F)cc3)nc2C)ccc1CCCCn1ccnn1 [Example 11, 2-Methyl-3-[3-Methyl-4-(4-[1,2,3]triazol-1-yl-butyl)-phenoxymethyl]-6-(4-trifluoromethoxy-phenyl)-pyridine]	5 to 1000 nM
Cc1nc(-c2ccc(Cl)cc2)ccc1COc1ccc(CCCCn2ccnn2)cc1 [Example 20, 6-(4-Chloro-phenyl)-2-methyl-3-[4-(4-[1,2,3]triazol-1-yl-butyl)-phenoxymethyl]-pyridine]	5 to 1000 nM
Cc1cc(OCc2cncc(-c3ccc(Cl)cc3)c2)ccc1CCCCn1ccnn1 [Example 38, 3-(4-Chloro-phenyl)-5-[3-methyl-4-(4-[1,2,3]triazol-1-yl-butyl)-phenoxymethyl]-pyridine]	1000 to 5000 nM
Cc1cc(OCc2cccc(-c3ccc(OC(F)(F)F)cc3)n2)ccc1CCCCn1ccnn1 [Example 30, 2-[3-Methyl-4-(4-[1,2,3]triazol-1-yl-butyl)-phenoxymethyl]-6-(4-trifluoromethoxy-phenyl)-pyridine]	1000 to 5000 nM
Clc1ccc(-c2ccc(COc3ccc(CCCCn4ccnn4)cc3)cn2)cc1 [Example 27, 2-(4-Chloro-phenyl)-5-[4-(4-[1,2,3]triazol-1-yl-butyl)-phenoxymethyl]-pyridine]	5 to 1000 nM
Cc1cc(OCc2ccc(-c3ccc(C(F)(F)F)cc3)nc2)ccc1CCCCn1ccnn1 [Example 5, 5-[3-Methyl-4-(4-[1,2,3]triazol-1-yl-butyl)-phenoxymethyl]-2-(4-trifluoromethyl-phenyl)-pyridine]	89 nM
Clc1ccc(-c2cccc(COc3ccc(CCCCn4ccnn4)cc3)n2)cc1 [Example 35, 2-(4-Chloro-phenyl)-6-[4-(4-[1,2,3]triazol-1-yl-butyl)-phenoxymethyl]-pyridine]	1000 to 5000 nM
Cc1cc(OCc2ccc(-c3ccc(C(F)(F)F)cc3)nc2C)ccc1CCCCn1ccnn1 [Example 6, 2-Methyl-3-[3-Methyl-4-(4-[1,2,3]triazol-1-yl-butyl)-phenoxymethyl]-6-(4-trifluoromethyl-phenyl)-pyridine]	5 to 1000 nM
FC(F)(F)c1ccc(-c2cccc(COc3ccc(CCCCn4ccnn4)cc3)n2)cc1 [Example 18, 2-[4-(4-[1,2,3]triazol-1-yl-butyl)-phenoxymethyl]-6-(4-trifluoromethyl-phenyl)-pyridine]	1000 to 5000 nM
FC(F)(F)c1ccc(-c2ccc(COc3ccc(CCCCn4ccnn4)cc3)cn2)cc1 [Example 3, 5-[4-(4-[1,2,3]triazol-1-yl-butyl)-phenoxymethyl]-[2-(4-trifluoromethyl-phenyl)]-pyridine]	5 to 1000 nM
Cc1nc(-c2ccc(F)cc2)ccc1COc1ccc(CCCCn2ccnn2)cc1 [Example 16, 6-(4-Fluoro-phenyl)-2-methyl-3-[4-(4-[1,2,3]triazol-1-yl-butyl)-phenoxymethyl]-pyridine]	5 to 1000 nM
Cc1cc(OCc2ccc(-c3ccc(F)cc3)nc2C)ccc1CCCCn1ccnn1 [Example 17, 6-(4-Fluoro-phenyl)-2-methyl-3-[3-Methyl-4-(4-[1,2,3]triazol-1-yl-butyl)-phenoxymethyl]-pyridine]	5 to 1000 nM
Cc1cc(OCc2ccc(-c3cccc(OC(F)(F)F)c3)nc2C)ccc1CCCCn1ccnn1 [Example 15, 2-Methyl-3-[3-Methyl-4-(4-[1,2,3]triazol-1-yl-butyl)-phenoxymethyl]-6-(3-trifluoromethoxy-phenyl)-pyridine]	1000 to 5000 nM
Cc1nc(-c2ccc(C(F)(F)F)cc2F)ccc1COc1ccc(CCCCn2ccnn2)cc1 [Example 43, 6-(2-Fluoro-4-trifluoromethyl-phenyl)-2-methyl-3-[4-(4-[1,2,3]triazol-1-yl-butyl)-phenoxymethyl]-pyridine]	1000 to 5000 nM
Cc1nc(-c2ccc(C(F)(F)F)cc2)ccc1COc1ccc(CCCCn2ccnn2)cc1 [Example 7, 2-Methyl-3-[4-(4-[1,2,3]triazol-1-yl-butyl)-phenoxymethyl]-6-(4-trifluoromethyl-phenyl)-pyridine]	5 to 1000 nM
Cc1nc(-c2ccc(F)cc2)ccc1COc1ccc(CSCCn2ccnn2)cc1 [Example 23, 6-(4-Fluoro-phenyl)-2-methyl-3-[4-(2-[1,2,3]triazol-1-yl-ethylsulfanylmethyl)-phenoxymethyl]-pyridine]	1000 to 5000 nM
Cc1cc(OCc2cccc(-c3ccc(C(F)(F)F)cc3)n2)ccc1CCCCn1ccnn1 [Example 19, 2-[3-Methyl-4-(4-[1,2,3]triazol-1-yl-butyl)-phenoxymethyl]-6-(4-trifluoromethyl-phenyl)-pyridine]	5 to 1000 nM
Cc1cc(OCc2ccc(-c3ccc(Cl)cc3)nc2)ccc1CCCCn1ccnn1 [Example 28, 2-(4-Chloro-phenyl)-5-[3-methyl-4-(4-[1,2,3]triazol-1-yl-butyl)-phenoxymethyl]-pyridine]	1000 to 5000 nM
Cc1nc(-c2ccc(C(F)(F)F)cc2)ccc1COc1ccc(CSCCn2ccnn2)cc1 [Example 22, 2-Methyl-3-[4-(2-[1,2,3]triazol-1-yl-ethylsulfanylmethyl)-phenoxymethyl]-6-(4-trifluoromethyl-phenyl)-pyridine]	5 to 1000 nM
Cc1cc(OCc2ccc(-c3ccc(OC(F)(F)F)cc3)nc2)ccc1CCCCn1ccnn1 [Example 4, 5-[3-Methyl-4-(4-[1,2,3]triazol-1-yl-butyl)-phenoxymethyl]-[2-(4-trifluoromethoxy-phenyl)]-pyridine]	365 nM
